Laboratory results as given in PubChem BioAssay (NCI).
Several values for one entry are separate records, joined by “and”; a condition that tells them apart may be missing. Identical values can stand only once.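 1) Cells in 96-well plates. 2) Compound, 48 h, 5 concentrations. 3) Linear interpolation between surrounding doses. 4) Unreached endpoint = highest concentration. GI50 is the concentration that inhibits growth by half. TGI: concentration producing complete growth inhibition.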

Assays:
Assay in all cases: NCI-60 cell line screen, 48 h
RXF 393 renal = system: RXF 393 renal
SF-539 CNS = system: SF-539 CNS
M19-MEL melanoma = system: M19-MEL melanoma
DMS 114 small cell lung = system: DMS 114 small cell lung
HOP-18 NSCLC = system: HOP-18 NSCLC
OVCAR-3 ovarian = system: OVCAR-3 ovarian
CCRF-CEM leukemia = system: CCRF-CEM leukemia
KM20L2 colon = system: KM20L2 colon
A549 NSCLC = system: A549 NSCLC
SR leukemia = system: SR leukemia

Structure (SMILES)	TGI (RXF 393 renal)	TGI (SF-539 CNS)	TGI (M19-MEL melanoma)	TGI (DMS 114 small cell lung)	TGI (HOP-18 NSCLC)	TGI (OVCAR-3 ovarian)	TGI (CCRF-CEM leukemia)	TGI (KM20L2 colon)	TGI (A549 NSCLC)	TGI (SR leukemia) [µM]	GI50 (RXF 393 renal)	GI50 (SF-539 CNS)	GI50 (M19-MEL melanoma)	GI50 (DMS 114 small cell lung)	GI50 (HOP-18 NSCLC)	GI50 (OVCAR-3 ovarian)	GI50 (CCRF-CEM leukemia)	GI50 (KM20L2 colon)	GI50 (SR leukemia) [µM]	GI50 (A549 NSCLC)
C=C(C)[C@H](O)C(O)CC(C)[C@@H]1CCC23CC12CCC1[C@@]2(C)CCC(OC(C)=O)C(C)(C)C2CC(OC2OC(COC(C)=O)C(O)C(O)C2O)[C@]13C (stereo partly specified)	8.49 µM	12.8 µM	10.7 µM	10.7 µM	15.2 µM	11.6 µM	9.7 µM	9.84 µM	12.2 µM	–	–	–	–	–	–	–	–	–	–	–
Cc1cccc2c1C/C(=C1\CCc3c(C)cccc31)C2=O	> 100 µM	–	> 100 µM	> 100 µM	> 100 µM	> 100 µM	> 100 µM	> 100 µM	> 100 µM	> 100	–	–	–	–	–	–	–	–	–	–
COc1cc([C@@H]2OC(=O)C3C2C(=O)O[C@H]3c2cc(OC)c(OC)c(OC)c2)cc(OC)c1OC (stereo partly specified)	> 100 µM	> 100 µM	> 100 µM	> 100 µM	> 100 µM	> 100 µM	> 100 µM	> 100 µM	> 100 µM	–	–	–	–	–	–	–	–	–	–	–
CCOC(=O)NC(=O)c1cn(CCN2CCN(C(=O)NCCCCCCNC(=O)N3CCN(CCn4cc(C(=O)NC(=O)OCC)c(=O)n(CCN(CC)CC)c4=O)CC3)CC2)c(=O)n(CCC(CC)CC)c1=O	> 100 µM	> 100 µM	> 100 µM	> 100 µM	> 100 µM	> 100 µM	–	> 100 µM	> 100 µM	> 100	–	–	–	–	–	–	–	–	–	–
C[CH2][Sn]([CH2]C)([O]C(=O)c1cccc(F)c1)[O][Sn]([CH2]C)([CH2]C)[O]C(=O)c1cccc(F)c1	27.7 µM	30.9 µM	31.9 µM	27.3 µM	32.5 µM	> 100 µM	34.7 µM	> 100 µM	> 100 µM	> 100	14.5 µM	17 µM	16.8 µM	14 µM	18.5 µM	78.8 µM	4.28 µM	38.4 µM	28	> 100 µM
c1ccc2c3c([nH]c2c1)C1(CCCCC1)c1c([nH]c2ccccc12)C31CCCCC1	89.4 µM	–	> 100 µM	> 100 µM	68.2 µM	> 100 µM	> 100 µM	> 100 µM	> 100 µM	58.9	–	–	–	–	–	–	–	–	–	–
Cc1ccc(N2C(=O)/C(=C/c3ccc(N(CCC#N)CCC#N)cc3C)N=C2c2cc([N+](=O)[O-])ccc2Cl)cc1	–	> 100 µM	> 100 µM	> 100 µM	> 100 µM	> 100 µM	> 100 µM	–	> 100 µM	> 100	–	–	–	–	–	–	–	–	–	–
CC1=Nn2c(nnc2-c2ccc(N)cc2)NC(C)(C)C1	–	> 100 µM	> 100 µM	> 100 µM	> 100 µM	> 100 µM	> 100 µM	> 100 µM	> 100 µM	–	–	–	–	–	–	–	–	–	–	–
Cc1cc(=O)oc2cc(OCc3nc4ccccc4c(=O)[nH]3)ccc12	> 100 µM	> 100 µM	> 100 µM	> 100 µM	> 100 µM	> 100 µM	> 100 µM	> 100 µM	> 100 µM	–	–	–	–	–	–	–	–	–	–	–
Cc1cccc2c1C(=O)OC2(C)c1cccc2ccccc12 (stereo unspecified)	84.6 µM	–	> 100 µM	> 100 µM	> 100 µM	78.8 µM	80.4 µM	59.5 µM	> 100 µM	68.7	–	–	–	–	–	–	–	–	–	–
CC12CC3CC(C1)CC(N=[N+]=[N-])(C3)C2	–	> 100 µM	> 100 µM	> 100 µM	> 100 µM	> 100 µM	> 100 µM	> 100 µM	> 100 µM	–	–	–	–	–	–	–	–	–	–	–
O=C(/C=C1/NC(=O)CS1)Nc1ccccc1	> 100 µM	> 100 µM	> 100 µM	> 100 µM	> 100 µM	> 100 µM	> 100 µM	> 100 µM	> 100 µM	–	–	–	–	–	–	–	–	–	–	–
COc1ccccc1/C=N/N=C(\N)NO	> 100 µM	9.4 µM	> 100 µM	> 100 µM	> 100 µM	> 100 µM	> 100 µM	–	81.1 µM	> 100	–	–	–	–	–	–	–	–	–	–
COc1cc2cccc(NC(=O)c3cc(OC)c(OC)c(OC)c3Br)c2cc1OC	–	46.8 µM	32.5 µM	12.8 µM	74.4 µM	47.5 µM	21.5 µM	> 100 µM	46 µM	–	–	–	–	–	–	–	–	–	–	–
C=CCN=C1NC(=O)C(CC(=O)Nc2ccc(C)cc2)S1 (stereo unspecified)	> 100 µM	> 100 µM	> 100 µM	> 100 µM	> 100 µM	> 100 µM	> 100 µM	> 100 µM	> 100 µM	–	–	–	–	–	–	–	–	–	–	–
COc1cc(C(=O)CC2(O)C(=O)Nc3c(Cl)cc(Cl)cc32)ccc1O (stereo unspecified)	> 100 µM	–	–	> 100 µM	> 100 µM	> 100 µM	> 100 µM	> 100 µM	> 100 µM	–	–	–	–	–	–	–	–	–	–	–
COc1cc(/C=C2/C(=O)NC(Cc3cc(OC)c(OC)c(C)c3OC)C(=O)N2Cc2ccccc2)c(OC)c(C)c1OC (stereo unspecified)	> 100 µM	> 100 µM	> 100 µM	> 100 µM	80.4 µM	> 100 µM	> 100 µM	> 100 µM	> 100 µM	54.1	–	–	–	–	–	–	–	–	–	–
COc1ccc2c(c1)CC1c3c(cc4c(c3-2)OCO4)CCN1C (stereo unspecified)	–	> 100 µM	45.2 µM	68.8 µM	82.7 µM	88.4 µM	> 100 µM	> 100 µM	61 µM	–	–	–	–	–	–	–	–	–	–	–
Cc1ccc(C2=C(c3ccccc3)C(Br)(c3ccccc3)C(c3ccccc3)=C2c2ccc(C)cc2)cc1	> 100 µM	> 100 µM	> 100 µM	> 100 µM	> 100 µM	> 100 µM	> 100 µM	> 100 µM	> 100 µM	–	–	–	–	–	–	–	–	–	–	–
O=P1(O)c2ccccc2Nc2cc(C(F)(F)F)ccc21	> 100 µM	> 100 µM	> 100 µM	> 100 µM	> 100 µM	> 100 µM	> 100 µM	> 100 µM	> 100 µM	> 100	–	–	–	–	–	–	–	–	–	–
CNc1nc(N(C)C)nc(N(C)C)n1	> 100 µM and 3070 µM	> 100 µM and 3580 µM	> 100 µM and 3950 µM	> 100 µM and 5500 µM	> 100 µM and 3780 µM	> 100 µM and 2300 µM	> 100 µM and 6600 µM	> 100 µM and 3210 µM	> 100 µM and 3500 µM	> 100	> 100 µM and 975 µM	> 100 µM and 1350 µM	> 100 µM and 2040 µM	> 100 µM and 527 µM	> 100 µM and 1130 µM	> 100 µM and 981 µM	> 100 µM and 4060 µM	> 100 µM and 718 µM	> 100	> 100 µM and 2150 µM
